Converted amounts (≈) assume the structure as drawn. Like-named read-outs stand apart in the source and are kept apart here.
T1: B. cenocepacia nitroreductase BCAL0539 (BcNR) (Burkholderia cenocepacia, UniProt B4E8I2)
T1 sequence (B4E8I2 1-242): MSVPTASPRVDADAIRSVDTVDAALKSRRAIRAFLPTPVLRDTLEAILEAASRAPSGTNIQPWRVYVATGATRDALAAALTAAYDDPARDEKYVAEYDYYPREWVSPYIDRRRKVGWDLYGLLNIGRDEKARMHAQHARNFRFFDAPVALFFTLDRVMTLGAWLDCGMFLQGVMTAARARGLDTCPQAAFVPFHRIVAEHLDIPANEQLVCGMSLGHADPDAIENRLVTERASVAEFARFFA


Tests used:
[1] = molecular target: T1, B. cenocepacia nitroreductase BCAL0539 (BcNR); experiment: BcNR nitroreductase steady-state kinetics (NADPH decrease at 340 nm); format: biochemical; details: compound as substrate of BcNR
Procedure: (§1) The reaction mixture typically contained 50 mM potassium phosphate pH 8.0, 50 mM KCl, 5–10 μM BcNR, and reactions were started by adding the substrate. Steady-state kinetics parameters were determined by assaying the enzyme at variable concentrations of substrate (10–500 μM). The experiments were performed in triplicate, and the kinetic constants Km and kcat determined by fitting the data to the Michaelis-Menten equation using Origin 8 software.

B. cenocepacia FCF19 [2] = experiment: MIC, 2-fold microdilution, resazurin method; format: cell-based, Burkholderia cenocepacia; details: clinical isolate FCF19; for MIC: Burkholderia cenocepacia
Procedure: (§2) Burkholderia cenocepacia strains, Escherichia coli ATCC 25922, Pseudomonas aeruginosa PAO1, and Staphylococcus aureus ATCC 25923 were grown in Luria-Bertani (LB) medium (Difco), if not differently specified, with shaking at 200 rpm, or on LB agar, at 37°C.
(§3) The microtiter plates were incubated at 37°C for 48 (for B. cenocepacia) or 24 h (for all the other strains) and growth was determined by the resazurin method (Martin et al., [2006]). A solution of resazurin sodium salt (Sigma Aldrich) was prepared at 0.01% in distilled water and filter-sterilized. Thirty microliter of resazurin solution were added to each well after 1 or 2 days of incubation at 37°C, and the microtiters were re-incubated at the same temperature for 4 h. The MIC was defined as the lowest concentration of the drug that prevented a change in color from blue to pink, which indicates bacterial growth.
(§4) Three independent biological replicates were used for each MIC determination.

B. cenocepacia FCF22 [3] = experiment: MIC, 2-fold microdilution, resazurin method; format: cell-based, Burkholderia cenocepacia; details: clinical isolate FCF22; for MIC: Burkholderia cenocepacia
Procedure: as §2, §3, §4

B. cenocepacia J2315 = experiment: MIC, 2-fold microdilution, resazurin method; format: cell-based, Burkholderia cenocepacia; details: for MIC: Burkholderia cenocepacia; for activity compared with C109, in words: SAR statements, against both bacteria and the purified enzyme
Procedure: as §2, §3, §4

E. coli ATCC 25922 = experiment: MIC, 2-fold microdilution, resazurin method; format: cell-based; details: Escherichia coli
Procedure: as §2, §3, §4

P. aeruginosa PAO1 = experiment: MIC, 2-fold microdilution, resazurin method; format: cell-based; details: Pseudomonas aeruginosa
Procedure: as §2, §3, §4

S. aureus ATCC 25923 = experiment: MIC, 2-fold microdilution, resazurin method; format: cell-based, Staphylococcus aureus; details: for MIC: Staphylococcus aureus; for spectrum of activity, in words: S. aureus vs Gram-negative species
Procedure: as §2, §3, §4

[4] = molecular target: Burkholderia cenocepacia purified FtsZ protein (Burkholderia cenocepacia, UniProt B4E5Y7); experiment: biochemical; format: biochemical; details: for Inhibition of Bc FtsZ At 100 μM: 100 μM compound; for Inhibition of Bc FtsZ At 100 μM / Inhibits B. cenocepacia FtsZ GTPase at 100µM?: Yes/No; for Inhibits B. cenocepacia FtsZ GTPase at 100µM?: Supplementary Table 1
Chain of Burkholderia cenocepacia purified FtsZ protein (B4E5Y7 entry or part of it): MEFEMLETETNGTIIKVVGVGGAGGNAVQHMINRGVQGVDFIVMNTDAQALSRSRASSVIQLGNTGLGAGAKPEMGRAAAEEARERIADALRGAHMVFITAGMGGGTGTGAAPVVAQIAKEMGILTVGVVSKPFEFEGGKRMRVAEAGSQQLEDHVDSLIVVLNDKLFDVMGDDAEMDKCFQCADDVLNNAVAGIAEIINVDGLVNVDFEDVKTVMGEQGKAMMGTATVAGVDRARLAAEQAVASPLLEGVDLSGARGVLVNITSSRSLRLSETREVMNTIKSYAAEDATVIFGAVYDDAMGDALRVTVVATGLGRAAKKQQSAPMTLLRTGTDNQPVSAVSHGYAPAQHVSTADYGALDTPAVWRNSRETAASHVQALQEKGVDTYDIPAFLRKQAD
Procedure: All the recombinant FtsZ proteins were expressed at 20°C overnight in E. coli BL21(DE3) cells, upon induction with 0.5 mM IPTG, and purified using the same protocol assessed for the wild-type B. cenocepacia FtsZ (Hogan et al., [2018]).
GTPase enzyme activity was determined using a pyruvate kinase/L-lactic dehydrogenase (PK/LDH) spectrophotometric coupled assay (Ingerman and Nunnari, [2005]). The assays were performed at 30°C, in a reaction mixture containing […] Hepes pH 7.5, 5 mM MgCl2, 5 mM KCl, 10 U PK/LDH, 0.25 mM NADH, 0.25 mM PEP, and 5–10 μM FtsZ, and initiated by the addition of 0.5 mM GTP. Alternatively, GTPase activity was determined by measuring the release of phosphate using the malachite green assay (Baykov et al., [1988]).
(1) A[I]=A[0]×(1-[I]/[I]+IC50)
where A[I] is the enzyme activity at inhibitor concentration [I] and A[0] is the enzyme activity without inhibitor.

P. aeruginosa = experiment: Checkerboard assay with efflux pump inhibitor PaβN MC-207.110; format: cell-based, Pseudomonas aeruginosa; details: Pseudomonas aeruginosa; read-out: MIC in the presence of MC-207.110, P. aeruginosa
Procedure: as §3, with “growth. […] Three independent biological replicates were used for each MIC determination.” for “growth.”

B. cenocepacia FCF19 [5] = experiment: as above; format: cell-based, Burkholderia cenocepacia; details: checkerboard, MC-207.110 0–128 μg/ml; C109 value at 128 μg/ml
Procedure: as §3, with “growth. […] Three independent biological replicates were used for each MIC determination.” for “growth.”

B. cenocepacia FCF22 [6] = experiment: as above; format: cell-based, Burkholderia cenocepacia; details: checkerboard, MC-207.110 0–128 μg/ml; C109 value at 128 μg/ml
Procedure: as §3, with “growth. […] Three independent biological replicates were used for each MIC determination.” for “growth.”

[7] = system: CF bronchial epithelial (CFBE41o-) cell line; experiment: Toxicity by MTT assay; format: cell-based; details: CFBE41o- cells, data not shown
B. cenocepacia = experiment: Resazurin-based assay of BcNR reaction mixtures; format: cell-based, Burkholderia cenocepacia; details: BcNR reactions with 1 mM C109, with or without NADPH; C109 result: in the absence of NADPH
Source text: To assess whether the resulting BcNR reduction product could inhibit B. cenocepacia growth, we carried out a resazurin-based assay.

[8] = substrate: COC(=O)CSc1ccc2nsnc2c1[N+](=O)[O-]; experiment: BcNR nitroreductase steady-state kinetics (NADPH decrease at 340 nm); format: biochemical, Burkholderia cenocepacia; details: other: compound as substrate of BcNR; pH 8.0; 37.0 °C
Procedure: as §1

[9] = substrate: O=C(O)c1ccc([N+](=O)[O-])cc1; experiment: as above; format: biochemical, Burkholderia cenocepacia; details: other: compound as substrate of BcNR; pH 8.0; 37.0 °C
Procedure: as §1

[10] = ATCC25922, LB, 24 h, read-out: MIC E. coli 25922
[11] = PAO1, LB, 24 h, read-out: MIC P. aeruginosa PAO1
[12] = ATCC25923, LB, 24 h, read-out: MIC S. aureus 25923
[13] = J2315, LB, 48 h, read-out: MIC B. cenocepacia J2315
[14] = J2315, Supplementary Table 1, read-out: MIC (µg/ml) B. cenocepacia J2315
[15] = ATCC25922, Supplementary Table 1, read-out: MIC (µg/ml) E. coli 25922
[16] = PAO1, Supplementary Table 1, read-out: MIC (µg/ml) P. aeruginosa PAO1
[17] = ATCC25923, Supplementary Table 1, read-out: MIC (µg/ml) S. aureus 25923

| Molecule | MIC (E. coli ATCC 25922; [10]) [µg/mL] | MIC (P. aeruginosa PAO1; [11]) [µg/mL] | MIC (S. aureus ATCC 25923; [12]) [µg/mL] | Inhibition of Bc FtsZ At 100 μM [4] | Inhibits B. cenocepacia FtsZ GTPase at 100µM? [4] | melting point [°C] | MIC (B. cenocepacia J2315; [13]) [µg/mL] | MIC (B. cenocepacia J2315; [14]) [µg/mL] | activity compared with C109, in words (B. cenocepacia J2315) | MIC (E. coli ATCC 25922; [15]) [µg/mL] | MIC (P. aeruginosa PAO1; [16]) [µg/mL] | MIC (S. aureus ATCC 25923; [17]) [µg/mL] | IC50 [4] [µM] | also measured |
| --- | --- | --- | --- | --- | --- | --- | --- | --- | --- | --- | --- | --- | --- | --- |
| O=C(O)c1ccc([N+](=O)[O-])cc1 [4-nitrobenzoic acid] |  |  |  |  |  |  |  |  |  |  |  |  |  | Vmax (Figure 3) [1]: 17.5 ± 1.4 s⁻¹ |
| O=[N+]([O-])c1c(N=C=S)ccc2nsnc12 [compound 10026149] | 16 (≈ 67.2 µM) | 16 (≈ 67.2 µM) | 2 (≈ 8.39 µM) | Yes | Yes | 185 to 187 |  |  |  |  |  |  |  | MIC (B. cenocepacia FCF19 [2]): 64 µg/mL (≈ 269 µM); MIC B. cenocepacia FCF19 (B. cenocepacia FCF19 [2]): resistance; MIC (B. cenocepacia FCF22 [3]): 256 µg/mL (≈ 1070 µM); MIC B. cenocepacia FCF22 (B. cenocepacia FCF22 [3]): resistance; MIC (B. cenocepacia J2315; J2315, 48 h, read-out: MIC (µg/ml) B. cenocepacia J2315): 32 µg/mL (≈ 134 µM); MIC (B. cenocepacia J2315; J2315, 48 h, read-out: MIC B. cenocepacia J2315): 32 µg/mL (≈ 134 µM); MIC (E. coli ATCC 25922; ATCC25922, 24 h, Supplementary Table 1, read-out: MIC (µg/ml) E. coli 25922): 16 µg/mL (≈ 67.2 µM); MIC (P. aeruginosa PAO1; PAO1, 24 h, Supplementary Table 1, read-out: MIC (µg/ml) P. aeruginosa PAO1): 16 µg/mL (≈ 67.2 µM); MIC (S. aureus ATCC 25923; ATCC25923, 24 h, Supplementary Table 1, read-out: MIC (µg/ml) S. aureus 25923): 2 µg/mL (≈ 8.39 µM); IC50 ([4]; read-out: Inhibition of Bc FtsZ IC50, GTPase activity): 20 µM |
| CCOC(=O)CSc1ccc2nsnc2c1[N+](=O)[O-] [compound 11426142] | 8 (≈ 26.7 µM) | 32 (≈ 107 µM) | 4 (≈ 13.4 µM) | Yes | Yes | 172 to 174 | 32 (≈ 107 µM) | 32 (≈ 107 µM) | partially lost activity | 8 (≈ 26.7 µM) | 32 (≈ 107 µM) | 4 (≈ 13.4 µM) | 21 | MIC (B. cenocepacia FCF19 [2]): 32 µg/mL (≈ 107 µM); MIC (B. cenocepacia FCF22 [3]): 32 µg/mL (≈ 107 µM); MIC (P. aeruginosa): 2 µg/mL; MIC in the presence of MC-207.110, FCF19 (B. cenocepacia FCF19 [5]): did not change; MIC in the presence of MC-207.110, FCF22 (B. cenocepacia FCF22 [6]): did not change; toxic concentration at 50% (TC50) [7]: 50 µM |
| O=C1CSc2ccc3nsnc3c2N1 [compound 11626109, 7H-[1,2,5]thiadiazolo[3,4-f][1,4]benzothiazin-8(9H)-one] | > 512 |  | > 512 | No | No | 211 to 213 | 512 (≈ 2290 µM) | 512 (≈ 2290 µM) | loss of activity | > 512 |  | > 512 |  | activity against B. cenocepacia growth (B. cenocepacia): not active |
| N#CSc1cc(SC#N)c2nsnc2c1[N+](=O)[O-] [compound 10626056] | > 512 | > 128 | 8 (≈ 27.1 µM) | Yes | Yes | 167 to 169 | > 64 | > 64 |  | > 512 | > 128 | 8 (≈ 27.1 µM) | 52 | spectrum of activity, in words (S. aureus ATCC 25923): showed activity only against S. aureus |
| CC(C)Oc1cc(SC#N)c2nsnc2c1[N+](=O)[O-] [compound 11126010] | > 512 | > 128 | 4 (≈ 13.5 µM) | Yes | Yes | 116 to 118 | > 128 | > 128 |  | > 512 | > 128 | 4 (≈ 13.5 µM) | 15 | spectrum of activity, in words (S. aureus ATCC 25923): showed activity only against S. aureus |
| CCOC(=O)C(C)Sc1ccc2nsnc2c1[N+](=O)[O-] (centres unmarked) [compound 11826110] | 32 (≈ 102 µM) | > 256 | 32 (≈ 102 µM) | No | No | 153 to 155 | 16 (≈ 51.1 µM) | 16 (≈ 51.1 µM) | partially lost activity | 32 (≈ 102 µM) | > 256 | 32 (≈ 102 µM) | > 100 |  |
| COC(=O)C[S+]([O-])c1ccc2nsnc2c1[N+](=O)[O-] (centres unmarked) [compound 11726257] | 8 (≈ 26.6 µM) | 128 (≈ 425 µM) | 8 (≈ 26.6 µM) | Yes | Yes | 179 to 181 | 16 (≈ 53.1 µM) | 16 (≈ 53.1 µM) | activity on B. cenocepacia similar to C109 | 8 (≈ 26.6 µM) | 128 (≈ 425 µM) | 8 (≈ 26.6 µM) | 3 |  |
| B. cenocepacia nitroreductase BCAL0539 (BcNR) (Burkholderia cenocepacia J2315) (protein) MSVPTASPRVDADAIRSVDTVDAALKSRRAIRAFLPTPVLRDTLEAILEAASRAPSGTNIQPWRVYVATGATRDALAAALTAAYDDPARDEKYVAEYDYYPREWVSPYIDRRRKVGWDLYGLLNIGRDEKARMHAQHARNFRFFDAPVALFFTLDRVMTLGAWLDCGMFLQGVMTAARARGLDTCPQAAFVPFHRIVAEHLDIPANEQLVCGMSLGHADPDAIENRLVTERASVAEFARFFA |  |  |  |  |  |  |  |  |  |  |  |  |  | Km [8]: 80 ± 5 µM; Vmax [8]: 71.9 µmol/min/mg; kcat [8]: 165 ± 5.9 s⁻¹; kcat/Km [8]: 2.064e+06 ± 20100 M⁻¹ s⁻¹; Km [9]: 200 ± 21 µM; Vmax [9]: 7.6 µmol/min/mg; kcat [9]: 17.5 ± 1.4 s⁻¹; kcat/Km [9]: 87500 ± 8100 M⁻¹ s⁻¹ |
